Like-named read-outs stand apart in the source and are kept apart here. Where a SMILES comes first, the peptide text is derived from it.
Legend:
Type in all cases: cell-based
[1] = tested on: recombinant IgG producing Chinese Hamster Ovary cell line (CHO cell line #1); assay: 24-well plate media supplement screening: peak viable cell density (CellTiter 96 AQueous)
Description: (§1) 24-well plates were utilized at a working volume of 1.5 mL per well to serve as the platform for media supplement screening. An in-house, base chemically defined media (CDM #1) was used as the basal media for the purposes of the experiments. A recombinant IgG producing Chinese Hamster Ovary cell line (CHO cell line #1) was used for the media supplement screening phase of the experiments.
All 24-well plate screening experiments were designed using JMP7 commercially available statistics software (Cary, N.C.) using custom experimental options. Six individual media supplement screening experiments were performed to test over a hundred different supplements in statistically designed experiments and in a serial fashion. All screening experiments were performed at […] cultured at 210 rpm on a shaker table in a 5% humidified CO2 incubator. Gas permeable, rayon film plate covers (VWR International, Radnor, Pa., Catalog #60941-086) were employed as necessary to provide a sterile barrier between the well plates, the plastic plate cover, and the culture atmosphere. Supplement solutions were manually pipetted into the respective plate wells using concentrated, sterile stock solutions. The comprehensive list of media supplements evaluated for cell culture process improvement is shown below in Table 2:
(§2) Two cell culture performance indicators were measured in the high-throughput screening experiments: peak viable cell density and harvest titer. Time point samples were withdrawn from each of the respective plate wells on Days 6, 7, and 8 post inoculation and measured for their respective viable cell densities spectrophotometrically via the CellTiter 96 AQueous Solution Cell Proliferation Assay Kits™ (Promega, Madison, Wis.). Harvest Titer measurements were conducted via high performance liquid chromatography (HPLC) with a Poros A™ affinity column (Applied Biosystems, Foster City, Calif.). All experimental wells supplemented with a particular combination of media compounds were compared to an unsupplemented control, with the results expressed as relative values relative to the control.
(§3) Two cell culture performance indicators were measured in the high-throughput screening experiments as well as media verification experiments; peak viable cell density (VCD) and harvest titer. […] A few days after the last cell count measurement sample the plates were centrifuged and the supernatant was collected and stored at −80° C. for future analysis. Harvest titer measurements were conducted via high performance liquid chromatography (HPLC) with a Poros A™ affinity column (Applied Biosystems, Foster City, Calif.). All experimental wells supplemented with a particular combination of media compounds were compared to an unsupplemented control, with the results expressed as values relative to the control. For the media verification experiments in larger-scale shaker and spinner flasks, viable cell density and viability were measured via Cedex automated cell counters (Roche Applied Science, Indianapolis, Ind.). Harvest titer measurements were similarly measured via HPLC.
(§4) Standard Analysis of Variance (ANOVA) was used to measure the significance of individual supplements and their respective interactions towards the resulting cell culture technique performance. Individual analyses were conducted on both peak viable cell density and harvest titer for each of the respective screening experiments. Three different levels of each media supplement were used in these experiments: unsupplemented (Level 1), lightly supplemented (Level 2), and heavily supplemented (Level 3). […] The optimization subroutine intrinsic to the statistics software was used to analyze the screening dataset determine the identity of a high performance media blend. It is important to note that the selection method is a mathematical exercise which can lead to multiple blends identified as having the highest performance parameters, and the results are highly dependent on the initial first guess.

[2] = tested on: recombinant IgG producing Chinese Hamster Ovary cell line (CHO cell line #1); assay: 24-well plate media supplement screening: harvest titer (HPLC, Poros A affinity column)
Description: as §1
All 24-well plate screening experiments were designed using JMP7 commercially available statistics software (Cary, N.C.) using custom experimental options. Six individual media supplement screening experiments were performed to test over a hundred different supplements in statistically designed experiments and in a serial fashion. […] Supplement solutions were manually pipetted into the respective plate wells using concentrated, sterile stock solutions. The comprehensive list of media supplements evaluated for cell culture process improvement is shown below in Table 2:
as §2, §3, §4
The aforementioned supplements were evaluated for improvements in cell culture technique performance.

[3] = tested on: recombinant IgG producing Chinese Hamster Ovary cell line (CHO cell line #1); assay: Supplement screening: process performance (peak VCD and/or harvest titer) by inspectional/statistical analysis
Description: as §4, with “guess. Three particular high performance blends were identified for further evaluation: […] The supplements whose relative concentrations supported a distinct pattern of either increasing or decreasing process performance were categorized into the clustered classification. […] These supplements were either compounds or groups of similar compounds such as polyamines, essential amino acids, and vitamins.” for “guess.”

[4] = tested on: recombinant IgG producing Chinese Hamster Ovary cell line (CHO cell line #1); assay: JMP7 statistical identification of high performance media supplementation from a 15-supplement screening experiment
Description: as §4
Fifteen of these supplements, or groups of supplements, were screened in a separate statistically designed experiment for the final determination of high performance media blends for the maximization of peak VCD, harvest titer, and both of these variables simultaneously.
The JMP7 statistical software program was further used to identify the high performance media supplementation for maximizing peak VCD, harvest titer, and both simultaneously.

[5] = HTS experiments, CDM #1, relative to unsupplemented control
[6] = univariate analysis of varying supplement concentrations
[7] = range given, variability in culture volumes
[8] = predicted amount for addition into the unsupplemented control media

Molecule | Effect on Peak VCD [1, 5] | Effect on Harvest Titer [2, 5] | also measured
OC[C@H]1O[C@H](O[C@H]2[C@H](O)[C@@H](O)C(O)O[C@@H]2CO)[C@H](O)[C@@H](O)[C@@H]1O (mixture of isomers) [Maltose] | No change | Increase | Process Performance Pattern [3, 6]: Wide dispersal
CCCCC/C=C\C/C=C\C/C=C\C/C=C\CCCC(=O)O [Arachidonic acid] | Decrease | Decrease | 
O=C(O)CCCC[C@@H]1SC[C@@H]2NC(=O)N[C@@H]21 [Biotin] | No change | No change | 
C[N+](C)(C)CCO.[Cl-] [Choline chloride] |  |  | Effect on Peak VCD [1]: No change; Effect on Harvest Titer [2]: No change; Process Performance Pattern [3]: Wide dispersal
O=S(=O)([O-])[O-].[Cu+2] [Cupric sulfate] |  |  | Effect on Peak VCD [1]: Increase; Effect on Harvest Titer [2]: Decrease; Process Performance Pattern [3]: Wide dispersal; Concentration Target (Range) for Increase of Harvest Titer [4]: 0 g/L; Concentration Target (Range) for Increase of Peak VCD [4]: +0.02 g/L; Concentration Target (Range) for Increase of Peak VCD and Harvest Titer [4]: 0 g/L
N[C@@H](CSSC[C@H](N)C(=O)O)C(=O)O [Cystine, L-cystine] | Decrease | Decrease | 
O=C(O)CN(CCN(CC(=O)O)CC(=O)O)CC(=O)O [EDTA] | Increase | Decrease | 
NCCO [Ethanolamine] | Increase | Decrease | 
Nc1nc(=O)c2nc(CNc3ccc(C(=O)N[C@@H](CCC(=O)O)C(=O)O)cc3)cnc2[nH]1 [Folate] |  |  | Process Performance Pattern [3, 6]: Wide dispersal
O=C(CO)[C@@H](O)[C@H](O)[C@H](O)CO [Fructose] | No change | No change | 
CC(=O)N[C@H]1C(O)O[C@H](CO)[C@H](O)[C@@H]1O (some centres unmarked) [GalNAc, N-acetylgalactosamine] | No change | Decrease | 
CC(=O)N[C@H]1C(O)O[C@H](CO)[C@@H](O)[C@@H]1O (some centres unmarked) [GlcNAc, N-acetylglucosamine] | Decrease | No change | 
N[C@@H](CCC(=O)N[C@@H](CS)C(=O)NCC(=O)O)C(=O)O [Glutathione, Glutathione, reduced] | Decrease | Decrease | 
C[C@]12CCC(=O)C=C1CC[C@@H]1[C@@H]2[C@@H](O)C[C@@]2(C)[C@H]1CC[C@]2(O)C(=O)CO [Hydrocortisone, reference compound] | No change | Increase | 
O=c1[nH]cnc2nc[nH]c12 [Hypoxanthine] |  |  | Concentration Range for Increase of Harvest Titer [4, 7]: (6.76 × 10^−4-8.68 × 10^−4) g/L; Concentration Range for Increase of Peak VCD and Harvest Titer [4, 7]: (6.76 × 10^−4-8.68 × 10^−4) g/L
C[C@H](N)C(=O)N[C@@H](CCC(N)=O)C(=O)O [L-alanyl-L-glutamine] (H-Ala-Gln-OH) | Increase | No change | 
Cl.N[C@@H](Cc1cnc[nH]1)C(=O)O.O [L-histidine*HCl*H2O] |  |  | Concentration Target (Range) for Increase of Harvest Titer [4, 8]: +0.25 (0.22-0.28) g/L; Concentration Target (Range) for Increase of Peak VCD [4, 8]: +0.21 (0.18-0.23) g/L; Concentration Target (Range) for Increase of Peak VCD and Harvest Titer [4, 8]: +0.25 (0.22-0.28) g/L

Molecule | Effect on Peak VCD [1, 5] | Effect on Harvest Titer [2, 5] | also measured
CCCCC/C=C\C/C=C\CCCCCCCC(=O)O [Linoleic acid] | No change | Increase | 
NC(=O)c1cccnc1 [Nicotinamide] | Decrease | No change | 
Nc1ccc(C(=O)O)cc1 [PABA, Para-amino benzoic acid] | Decrease | No change | 
O=P(O)(O)O [Potassium phosphate] |  |  | Effect on Peak VCD [1]: Increase; Effect on Harvest Titer [2]: Decrease; Process Performance Pattern [3]: Clustered; Concentration Target (Range) for Increase of Harvest Titer [4]: +0.09 (0.08-0.10) g/L; Concentration Target (Range) for Increase of Peak VCD [4]: +0.10 (0.09-0.12) g/L; Concentration Target (Range) for Increase of Peak VCD and Harvest Titer [4]: +0.10 (0.09-0.12) g/L
NCCCCN [Putrescine] | Decrease | No change | Concentration Range for Increase of Harvest Titer [4, 7]: ( 1.06 × 10^−4-1.36 × 10^−4) g/L; Concentration Range for Increase of Peak VCD and Harvest Titer [4, 7]: (1.06 × 10^−4-1.36 × 10^−4) g/L
Cc1cc2nc3c(=O)[nH]c(=O)nc-3n(C[C@H](O)[C@H](O)[C@H](O)CO)c2cc1C [Riboflavin] | Decrease | No change | 
CNCC(=O)O [Sarcosine] | No change | Decrease | 
O=C([O-])CC(O)(CC(=O)[O-])C(=O)[O-].[Na+].[Na+].[Na+] [Sodium citrate] | No change | No change | 
CC(=O)C(=O)[O-].[Na+] [Sodium pyruvate] | Decrease | No change | 
NCCCCNCCCN [Spermidine, free base, Spermidine] |  |  | Concentration Range for Increase of Harvest Titer [4, 7]: (4.22 × 10^−5-5.42 × 10^−5) g/L; Concentration Range for Increase of Peak VCD and Harvest Titer [4, 7]: (4.22 × 10^−5-5.42 × 10^−5) g/L
NCCCNCCCCNCCCN [Spermine, free base, Spermine] |  |  | Concentration Range for Increase of Harvest Titer [4, 7]: (8.11 × 10^−5-1.04 × 10^−4) g/L; Concentration Range for Increase of Peak VCD and Harvest Titer [4, 7]: (8.11 × 10^−5-1.04 × 10^−4) g/L
NCCS(=O)(=O)O [Taurine] | Decrease | Decrease | 
Cc1cn([C@H]2C[C@H](O)[C@@H](CO)O2)c(=O)[nH]c1=O [Thymidine] | No change | Decrease | Process Performance Pattern [3, 6]: Wide dispersal; Concentration Range for Increase of Peak VCD [4, 7]: (1.75 × 10^−3-2.25 × 10^−3) g/L
Cc1ncc(CO)c(CO)c1O.Cl [Vitamin B-6, Pyridoxine hydrochloride] | No change | Increase | 
O=C[C@H](O)[C@@H](O)[C@H](O)CO [Xylose] | No change | Increase | Process Performance Pattern [3, 6]: Wide dispersal
Concanavalin A | Decrease | Decrease | 
Cyanocobalamin [Vitamin B-12] | No change | Decrease | 

— patent US9068970B2, “Efficient and effective supplement screening for the development of chemically defined media in cell culture” (Abbvie Inc., priority 2010, dated 2015)
